Measurements from patent US20240317777A1, “NOVEL MACROCYCLIC AMINOPYRAZOLE COMPOUNDS AS CDK2 INHIBITORS” (Accutar Biotechnology Inc., priority 2023, published 2024).
Like-named read-outs stand apart in the source and are kept apart here.

How the values were obtained:
[1] = biological target: CDK1-CYCLIN B (Homo sapiens, UniProt P06493); test: CDK protein kinase inhibition by ADP-Glo assay, CDK1-CYCLIN B; type: biochemical; conditions: for IC50: ADP-Glo, 1000 μM ATP, read-out: CDK1-CYCLINB, IC50; for CDK2 Fold selectivity, CDK1: CDK2 versus CDK1
Summary of the method: (§1)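 Kinase/cyclin + peptide substrate + cpd + ATP (1000 μM)/MgCl2 (5 mM), HEPES pH 7.5, 22° C; quench, ADP-Glo reagent 45 min RT, detection reagent 10 min, luminescence.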

[2] = test system: CCNE1-amplified OVCAR3 cells; test: Cell growth inhibition of CCNE1-amplified OVCAR3 cells (CellTiter-Glo); type: cell-based; conditions: Homo sapiens, OVCAR-3, 144 h, 6 days
Summary of the method: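 Growth read-out was CellTiter-Glo luminescence, taken after 10 min at room temperature at the end of a 6-day compound exposure at 37 °C. Compounds were diluted from DMSO stocks across various concentrations.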

[3] = test system: Phospho-Rb (Ser807/811) in OVCAR3 cells; test: Phospho-Rb expression inhibition in OVCAR3 cells quantified by In Cell Western; type: cell-based; conditions: Homo sapiens, OVCAR-3, 24 hours, read-out: OVCAR-3 pRb IC50
Summary of the method: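 In-cell western: after 24 h compound exposure at 37° C, fixed OVCAR3 cells co-stained for pRb Ser807/811 (800 nm channel) and total Rb (680 nm channel), imaged by LI-COR Odyssey.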

[4] = biological target: CDK6-CYCLIN D3 (Homo sapiens, UniProt Q00534); test: CDK protein kinase inhibition by ADP-Glo assay, CDK6-CYCLIN D3; type: biochemical; conditions: for IC50: ADP-Glo, 1000 μM ATP, read-out: CDK6-CYCLIND3, IC50; for CDK2 Fold selectivity, CDK6: CDK2 versus CDK6
Summary of the method: as §1

[5] = test system: CCNE1-normal SKOV3 cells; test: Cell growth inhibition of CCNE1-normal SKOV3 cells (CellTiter-Glo); type: cell-based; conditions: Homo sapiens, SK-OV-3, 144 h, 6 days
Summary of the method: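 Growth was measured by CellTiter-Glo luminescence after 6 days' compound exposure at 37 °C. Cells were plated one day before dosing at 1000 per well in medium with 10% FBS, and compounds were diluted from DMSO stocks.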

[6] = biological target: CDK2-CYCLIN E1 (Homo sapiens, UniProt P24941); test: CDK protein kinase inhibition by ADP-Glo assay, CDK2-CYCLIN E1; type: biochemical; conditions: ADP-Glo, 1000 μM ATP, read-out: CDK2-CYCLINE, IC50
Summary of the method: as §1

[7] = biological target: CDK9-CYCLIN T1 (Homo sapiens, UniProt P50750); test: CDK protein kinase inhibition by ADP-Glo assay, CDK9-CYCLIN T1; type: biochemical; conditions: for IC50: ADP-Glo, 1000 μM ATP, read-out: CDK9-CYCLINT1, IC50; for CDK2 Fold selectivity, CDK9: CDK2 versus CDK9
Summary of the method: as §1

[8] = biological target: CDK4-CYCLIN D1 (Homo sapiens, UniProt P11802); test: CDK protein kinase inhibition by ADP-Glo assay, CDK4-CYCLIN D1; type: biochemical; conditions: for IC50: ADP-Glo, 1000 μM ATP, read-out: CDK4-CYCLIND1, IC50; for CDK2 Fold selectivity, CDK4: CDK2 versus CDK4
Summary of the method: as §1

Chain of CDK4-CYCLIN D1 (P11802 whole entry): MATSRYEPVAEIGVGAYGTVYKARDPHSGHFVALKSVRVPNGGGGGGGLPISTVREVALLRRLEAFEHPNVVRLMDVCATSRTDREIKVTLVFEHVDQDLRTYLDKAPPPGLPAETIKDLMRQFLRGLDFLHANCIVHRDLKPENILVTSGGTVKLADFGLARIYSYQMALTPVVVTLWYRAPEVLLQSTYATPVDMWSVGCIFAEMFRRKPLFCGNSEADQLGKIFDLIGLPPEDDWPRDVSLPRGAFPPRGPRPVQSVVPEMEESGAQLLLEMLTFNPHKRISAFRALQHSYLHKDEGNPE
Chain of CDK4-CYCLIN D1 (P24385 whole entry partner): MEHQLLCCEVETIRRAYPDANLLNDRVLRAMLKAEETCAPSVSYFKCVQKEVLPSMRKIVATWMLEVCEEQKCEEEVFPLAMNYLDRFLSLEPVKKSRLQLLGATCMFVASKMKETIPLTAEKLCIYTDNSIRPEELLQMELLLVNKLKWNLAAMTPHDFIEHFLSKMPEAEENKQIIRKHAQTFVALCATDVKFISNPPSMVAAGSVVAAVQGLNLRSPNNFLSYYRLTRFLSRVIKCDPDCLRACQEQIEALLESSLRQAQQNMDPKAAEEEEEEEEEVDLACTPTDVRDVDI
Chain of CDK1-CYCLIN B (P06493 whole entry): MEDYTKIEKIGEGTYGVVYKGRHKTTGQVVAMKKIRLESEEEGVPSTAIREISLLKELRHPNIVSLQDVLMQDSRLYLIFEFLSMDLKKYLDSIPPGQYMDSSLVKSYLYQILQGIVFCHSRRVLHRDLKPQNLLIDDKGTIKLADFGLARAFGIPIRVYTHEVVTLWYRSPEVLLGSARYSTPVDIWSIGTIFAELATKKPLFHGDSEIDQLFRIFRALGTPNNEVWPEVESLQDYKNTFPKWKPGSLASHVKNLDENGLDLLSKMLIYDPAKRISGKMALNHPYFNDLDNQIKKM
Chain of CDK1-CYCLIN B (P14635 whole entry partner): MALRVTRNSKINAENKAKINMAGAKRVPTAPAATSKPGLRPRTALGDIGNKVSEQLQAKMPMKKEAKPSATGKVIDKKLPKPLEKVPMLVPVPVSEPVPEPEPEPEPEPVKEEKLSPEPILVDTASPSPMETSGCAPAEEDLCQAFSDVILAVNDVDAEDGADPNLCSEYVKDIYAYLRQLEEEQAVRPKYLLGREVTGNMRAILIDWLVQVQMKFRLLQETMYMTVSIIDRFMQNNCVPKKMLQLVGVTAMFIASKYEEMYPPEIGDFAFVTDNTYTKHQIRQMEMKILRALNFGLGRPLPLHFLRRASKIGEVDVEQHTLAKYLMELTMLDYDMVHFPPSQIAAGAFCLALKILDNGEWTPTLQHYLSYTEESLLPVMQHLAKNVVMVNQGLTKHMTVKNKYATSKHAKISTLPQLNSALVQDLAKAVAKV
Chain of CDK9-CYCLIN T1 (P50750 whole entry): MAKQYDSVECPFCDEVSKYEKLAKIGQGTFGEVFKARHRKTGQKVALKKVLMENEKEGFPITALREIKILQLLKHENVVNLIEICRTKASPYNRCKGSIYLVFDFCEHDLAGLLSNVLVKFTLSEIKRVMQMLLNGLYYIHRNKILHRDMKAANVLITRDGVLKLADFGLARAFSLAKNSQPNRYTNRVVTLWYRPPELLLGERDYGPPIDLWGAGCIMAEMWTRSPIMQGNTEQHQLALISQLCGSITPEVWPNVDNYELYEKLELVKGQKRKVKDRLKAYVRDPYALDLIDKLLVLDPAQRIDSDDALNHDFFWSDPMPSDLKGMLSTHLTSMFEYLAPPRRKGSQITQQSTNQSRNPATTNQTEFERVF
Chain of CDK9-CYCLIN T1 (O60563 whole entry partner): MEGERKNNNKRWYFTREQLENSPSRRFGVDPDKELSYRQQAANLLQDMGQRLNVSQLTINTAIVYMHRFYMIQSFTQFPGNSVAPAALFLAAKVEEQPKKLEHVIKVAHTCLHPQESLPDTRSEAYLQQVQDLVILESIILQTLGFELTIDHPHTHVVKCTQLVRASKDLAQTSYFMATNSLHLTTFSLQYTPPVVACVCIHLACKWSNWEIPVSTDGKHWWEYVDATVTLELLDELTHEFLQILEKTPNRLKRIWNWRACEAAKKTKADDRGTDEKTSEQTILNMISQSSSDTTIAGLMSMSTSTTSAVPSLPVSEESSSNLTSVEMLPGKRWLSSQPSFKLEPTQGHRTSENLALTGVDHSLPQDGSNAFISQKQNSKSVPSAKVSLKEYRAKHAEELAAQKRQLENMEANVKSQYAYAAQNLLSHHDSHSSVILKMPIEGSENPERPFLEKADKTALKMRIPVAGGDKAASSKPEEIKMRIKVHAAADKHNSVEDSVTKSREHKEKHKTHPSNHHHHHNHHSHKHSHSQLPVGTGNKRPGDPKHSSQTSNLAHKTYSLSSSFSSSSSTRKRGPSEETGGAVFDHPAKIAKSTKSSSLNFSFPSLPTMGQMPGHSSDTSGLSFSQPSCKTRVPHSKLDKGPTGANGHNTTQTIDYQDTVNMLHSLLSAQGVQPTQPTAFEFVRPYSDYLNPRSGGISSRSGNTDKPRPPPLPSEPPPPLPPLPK
Chain of CDK6-CYCLIN D3 (Q00534 whole entry): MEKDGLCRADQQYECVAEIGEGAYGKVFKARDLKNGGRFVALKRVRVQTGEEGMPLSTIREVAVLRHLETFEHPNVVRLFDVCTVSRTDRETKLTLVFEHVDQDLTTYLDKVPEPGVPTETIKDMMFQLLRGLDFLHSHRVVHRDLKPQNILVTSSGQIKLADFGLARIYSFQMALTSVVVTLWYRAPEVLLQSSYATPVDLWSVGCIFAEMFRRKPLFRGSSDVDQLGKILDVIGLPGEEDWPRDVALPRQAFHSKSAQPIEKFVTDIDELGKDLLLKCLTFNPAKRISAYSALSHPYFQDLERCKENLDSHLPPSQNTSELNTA
Chain of CDK6-CYCLIN D3 (P30281 whole entry partner): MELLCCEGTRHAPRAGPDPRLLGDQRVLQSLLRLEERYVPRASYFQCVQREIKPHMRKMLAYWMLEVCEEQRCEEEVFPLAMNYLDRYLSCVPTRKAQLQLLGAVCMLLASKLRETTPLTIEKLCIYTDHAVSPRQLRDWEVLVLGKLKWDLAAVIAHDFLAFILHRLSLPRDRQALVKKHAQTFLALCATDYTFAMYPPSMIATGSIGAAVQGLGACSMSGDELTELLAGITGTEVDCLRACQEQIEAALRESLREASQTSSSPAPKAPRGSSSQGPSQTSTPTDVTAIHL

Compound	IC50 [2] [µM]	IC50 [3] [µM]	IC50 [5] [µM]	IC50 ([1]; Table 19) [µM]	CDK2 Fold selectivity, CDK1 ([1]; Table 20)	IC50 ([4]; Table 19) [µM]	CDK2 Fold selectivity, CDK6 ([4]; Table 20)	IC50 ([6]; Table 19) [µM]	IC50 ([7]; Table 19) [µM]	CDK2 Fold selectivity, CDK9 ([7]; Table 20)	IC50 ([8]; Table 19) [µM]	CDK2 Fold selectivity, CDK4 ([8]; Table 20)	also measured
C[C@@H]1CCCNC(=O)O[C@@H]2CC[C@@H](C2)c2cc([nH]n2)Nc2cncc(c2)O1 [Compound 121, (1^1S,1^3R,6R,Z)-6-methyl-2^1H-5,12-dioxa-3,10-diaza-4(3,5)-pyridina-2(3,5)-pyrazola-1(1,3)-cyclopentanacyclododecaphan-11-one]	0.05 to 0.25	0.01 to 0.05	> 1.25										IC50 ([1]; Table 13): 0.1 to 0.5 µM; CDK2 Fold selectivity, CDK1 ([1]; Table 14): D (D, >20 and ≤50); IC50 ([4]; Table 13): 0.1 to 0.5 µM; CDK2 Fold selectivity, CDK6 ([4]; Table 14): C (C, >50 and ≤100); IC50 ([6]; Table 13): ≤ 0.01 µM; IC50 ([7]; Table 13): 0.1 to 0.5 µM; CDK2 Fold selectivity, CDK9 ([7]; Table 14): B (B, >100 and ≤500); IC50 ([8]; Table 13): > 0.5 µM; CDK2 Fold selectivity, CDK4 ([8]; Table 14): B (B, >100 and ≤500)
C[C@H]1CC/C=C/c2cc(ccn2)Nc2cc(n[nH]2)[C@H]2CC[C@H](C2)OC(=O)N1 [Compound 125, (1^1S,1^3R,2^4Z,5E,9S)-9-methyl-2^1H-12-oxa-3,10-diaza-4(4,2)-pyridina-2(3,5)-pyrazola-1(1,3)-cyclopentanacyclododecaphan-5-en-11-one]	0.01 to 0.05	0.002 to 0.01	0.25 to 1.25	0.1 to 0.5	E (E, <20)	0.1 to 0.5	D (D, >20 and ≤50)	≤ 0.01	0.1 to 0.5	D (D, >20 and ≤50)	0.1 to 0.5	E (E, <20)	
C[C@@H]1CC/C=C/c2cc(ccn2)Nc2cc(n[nH]2)[C@H]2CC[C@H](C2)OC(=O)N1 [Compound 126, (1^1S,1^3R,2^4Z,5E,9R)-9-methyl-2^1H-12-oxa-3,10-diaza-4(4,2)-pyridina-2(3,5)-pyrazola-1(1,3)-cyclopentanacyclododecaphan-5-en-11-one]	0.05 to 0.25	0.01 to 0.05	0.25 to 1.25	0.1 to 0.5	E (E, <20)	0.1 to 0.5	E (E, <20)	0.05 to 0.1	0.1 to 0.5	E (E, <20)	0.1 to 0.5	E (E, <20)	
O=C1NC2CC3(C2)CC(C3)Oc2cc(ccn2)Nc2cc(n[nH]2)[C@H]2CC[C@H](C2)O1 [Compound 128, (6^1S,6^3R,Z)-5^1H-2,7-dioxa-4,9-diaza-3(2,4)-pyridina-5(5,3)-pyrazola-6(1,3)-cyclopentana-1,10(1,3)-dicyclobutanadecaphan-8-one]	0.002 to 0.01	0.002 to 0.01	0.25 to 1.25										IC50 ([1]; Table 17): 0.01 to 0.05 µM; CDK2 Fold selectivity, CDK1 ([1]; Table 18): E (E, <20); IC50 ([4]; Table 17): 0.01 to 0.05 µM; CDK2 Fold selectivity, CDK6 ([4]; Table 18): E (E, <20); IC50 ([6]; Table 17): ≤ 0.01 µM; IC50 ([7]; Table 17): 0.01 to 0.05 µM; CDK2 Fold selectivity, CDK9 ([7]; Table 18): E (E, <20); IC50 ([8]; Table 17): 0.01 to 0.05 µM; CDK2 Fold selectivity, CDK4 ([8]; Table 18): D (D, >20 and ≤50)
C[C@@H]1CCC#Cc2cc(ccn2)Nc2cc(n[nH]2)[C@H]2CC[C@H](C2)OC(=O)N1 [Compound 137, (1^1S,1^3R,2^4Z,9R)-9-methyl-2^1H-12-oxa-3,10-diaza-4(4,2)-pyridina-2(3,5)-pyrazola-1(1,3)-cyclopentanacyclododecaphan-5-yn-11-one]	0.05 to 0.25	0.01 to 0.05	> 1.25	0.1 to 0.5	E (E, <20)	> 0.5	D (D, >20 and ≤50)	0.01 to 0.05	> 0.5	D (D, >20 and ≤50)	> 0.5	E (E, <20)	
